Source: patent US20260356810A1, “NOVEL PIPERAZINE-BASED SULFONAMIDES AND THEIR USE AS NEUROPROTECTIVE AND/OR NEURORESTORATIVE AGENTS” (GENECODE, priority 2022, published 2026)

Target: T1, GFRα1-RET (Homo sapiens, UniProt P56159)
T1 construct: expressed in transfected cells; host or cells: MG87 murine fibroblast
Assay: Luciferase assay: activation of Elk1 signaling in reporter-gene cells expressing GFRα1-RET (MG87 murine fibroblast stably transfected with PathDetect Elk-1, GFRα1, and RET)
Assay type: cell-based
Settings: Table 4; MG87 murine fibroblasts with PathDetect Elk-1, GFRα1, RET; 6 concentrations, duplicate, two times independently; agonist/activator activity; read-out: Luciferase Assay EC50
Experimental: The purpose of this experiment was to evaluate the GFRα1-RET activity of the compounds 001-060 according to the invention.
The compounds were tested for their activating activity of Elk1 signaling using the previously developed reporter-gene-based system in cells expressing GFRα1-RET (MG87 murine fibroblast stably transfected with PathDetect Elk-1, GFRα1, and RET) disclosed in Sidorova, Y. A. et al.: “Persephin signaling through GFRα1: The potential for the treatment of Parkinson's disease.” Molecular and Cellular Neuroscience, July 2010, Vol. 44, pp. 223-232. DOI: 10.1016/j.mcn.2010.03.009. For EC50 determination, a dose-response test was performed using 6 concentrations of each tested compound. Dose-response curves were fitted using the sigmoidal dose-response (variable slope) analysis in GraphPad Prism program (Graph Pad Inc) and EC50 of agonist/activator activity was calculated. Dose-response experiments were all performed in duplicate, two times independently.
The compounds were tested for their activating activity of Elk1 signaling using the same materials and methods than for the compounds according to the invention (Example 2 herein, section “Materials and methods”).

T1 sequence (P56159 25-429 limits assumed): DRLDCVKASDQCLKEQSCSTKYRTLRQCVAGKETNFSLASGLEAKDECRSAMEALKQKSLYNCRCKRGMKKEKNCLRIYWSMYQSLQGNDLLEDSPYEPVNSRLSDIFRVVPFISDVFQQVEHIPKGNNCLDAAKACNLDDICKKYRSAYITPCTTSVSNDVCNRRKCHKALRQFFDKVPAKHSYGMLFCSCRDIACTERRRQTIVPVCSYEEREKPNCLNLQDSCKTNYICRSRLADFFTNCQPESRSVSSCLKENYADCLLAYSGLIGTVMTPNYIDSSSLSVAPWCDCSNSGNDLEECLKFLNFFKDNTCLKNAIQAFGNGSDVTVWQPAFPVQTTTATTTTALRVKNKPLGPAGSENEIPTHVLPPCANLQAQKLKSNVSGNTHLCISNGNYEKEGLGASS
T1 sequence (P07949 29-1114 partner): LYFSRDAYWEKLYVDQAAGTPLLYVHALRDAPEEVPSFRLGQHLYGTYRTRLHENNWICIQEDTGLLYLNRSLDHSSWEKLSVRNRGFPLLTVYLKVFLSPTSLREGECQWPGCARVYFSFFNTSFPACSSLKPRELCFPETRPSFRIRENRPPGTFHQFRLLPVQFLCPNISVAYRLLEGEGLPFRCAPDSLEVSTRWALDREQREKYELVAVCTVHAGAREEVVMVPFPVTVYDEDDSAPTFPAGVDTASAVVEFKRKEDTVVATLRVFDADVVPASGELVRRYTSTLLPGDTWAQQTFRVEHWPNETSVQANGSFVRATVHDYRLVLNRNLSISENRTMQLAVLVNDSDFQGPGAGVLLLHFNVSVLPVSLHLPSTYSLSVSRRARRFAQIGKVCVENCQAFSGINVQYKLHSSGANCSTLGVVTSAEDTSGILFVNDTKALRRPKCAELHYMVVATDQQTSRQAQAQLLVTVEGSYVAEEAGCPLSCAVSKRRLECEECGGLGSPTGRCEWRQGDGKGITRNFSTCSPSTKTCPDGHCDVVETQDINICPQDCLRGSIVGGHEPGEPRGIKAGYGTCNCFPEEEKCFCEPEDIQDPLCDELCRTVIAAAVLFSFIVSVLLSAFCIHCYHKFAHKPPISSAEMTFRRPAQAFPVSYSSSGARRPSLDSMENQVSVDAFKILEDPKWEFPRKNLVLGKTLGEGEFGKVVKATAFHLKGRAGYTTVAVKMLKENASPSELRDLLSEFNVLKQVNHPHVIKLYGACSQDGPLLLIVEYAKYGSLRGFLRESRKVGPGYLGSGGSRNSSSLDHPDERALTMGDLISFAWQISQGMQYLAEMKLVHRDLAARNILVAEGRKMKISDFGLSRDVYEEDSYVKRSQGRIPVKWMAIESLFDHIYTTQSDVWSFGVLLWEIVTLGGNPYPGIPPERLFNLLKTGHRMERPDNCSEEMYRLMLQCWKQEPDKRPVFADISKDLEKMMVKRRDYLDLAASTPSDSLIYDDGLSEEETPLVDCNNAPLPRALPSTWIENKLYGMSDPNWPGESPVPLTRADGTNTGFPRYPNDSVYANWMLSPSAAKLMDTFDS

Row | SMILES | EC50 [µM]
1 | COc1ccc(S(=O)(=O)N2CC3CN(C(=O)OC(C)(C)C)CC3C2)cc1N1CCN(C(=O)c2ccc(F)cc2Cl)CC1 (centres unmarked) [Compound 022, tert-butyl 5-[3-[4-(2-chloro-4-fluoro-benzoyl)piperazin-1-yl]-4-methoxy-phenyl]sulfonyl-1,3,3a,4,6,6a-hexahydropyrrolo[3,4-c]pyrrole-2-carboxylate] | 10 to 50
2 | COc1ccc(S(=O)(=O)N2CCC(Cc3ccccc3)C2)cc1N1CCN(C(=O)c2ccc(F)cc2Cl)CC1 (centres unmarked) [Compound 029, (2-chloro-4-fluoro-phenyl)-[4-[2-methoxy-5-[3-benzylpyrrolidin-1-yl]sulfonyl-phenyl]piperazin-1-yl]methanone] | 5 to 10
3 | COc1ccc(S(=O)(=O)N(C)C(C)(C)C)cc1N1CCN(C(=O)c2ccc(F)cc2Cl)CC1 [Compound 033, N-tert-butyl-3-[4-(2-chloro-4-fluoro-benzoyl)piperazin-1-yl]-4-methoxy-N-methyl-benzenesulfonamide] | 5 to 10
4 | COc1ccc(S(=O)(=O)NC2C3CC4CC(C3)CC2C4)cc1N1CCN(C(=O)c2ccc(F)cc2Cl)CC1 (centres unmarked) [Compound 034, N-(2-adamantyl)-3-[4-(2-chloro-4-fluoro-benzoyl)piperazin-1-yl]-4-methoxy-benzenesulfonamide] | 5 to 10
5 | COc1ccc(S(=O)(=O)N2CC3CCC2C3)cc1N1CCN(C(=O)c2ccc(F)cc2Cl)CC1 (centres unmarked) [Compound 036, (2-chloro-4-fluoro-phenyl)-[4-[2-methoxy-5-[[2-azabicyclo[2.2.1]heptan-2-yl]sulfonyl]phenyl]piperazin-1-yl]methanone] | 10 to 50
6 | COc1ccc(S(=O)(=O)N(C)CCCC(F)(F)F)cc1N1CCN(C(=O)c2ccc(F)cc2Cl)CC1 [Compound 037, 3-[4-(2-chloro-4-fluoro-benzoyl)piperazin-1-yl]-4-methoxy-N-methyl-N-(4,4,4-trifluorobutyl)benzenesulfonamide] | 10 to 50
7 | COc1ccc(S(=O)(=O)N2CCCC(OCc3ccccc3)C2)cc1N1CCN(C(=O)c2ccc(F)cc2Cl)CC1 (centres unmarked) [Compound 038, (2-chloro-4-fluoro-phenyl)-[4-[2-methoxy-5-[[3-benzyloxy-1-piperidyl]sulfonyl]phenyl]piperazin-1-yl]methanone] | 1 to 5
8 | COc1ccc(S(=O)(=O)N2CCC(OCc3ccccc3)C2)cc1N1CCN(C(=O)c2ccc(F)cc2Cl)CC1 (centres unmarked) [Compound 039, (2-chloro-4-fluoro-phenyl)-[4-[2-methoxy-5-[3-benzyloxypyrrolidin-1-yl]sulfonyl-phenyl]piperazin-1-yl]methanone] | 1 to 5
9 | COc1ccc(S(=O)(=O)N2CC3CN(Cc4ccccc4)CC3C2)cc1N1CCN(C(=O)c2ccc(F)cc2Cl)CC1 (centres unmarked) [Compound 040, [4-[5-[[2-benzyl-1,3,3a,4,6,6a-hexahydropyrrolo[3,4-c]pyrrol-5-yl]sulfonyl]-2-methoxy-phenyl]piperazin-1-yl]-(2-chloro-4-fluoro-phenyl)methanone] | 10 to 50
10 | CCN(CC)S(=O)(=O)c1cccc(N2CCN(C(=O)c3ccc(F)cc3C(F)(F)F)CC2)c1 [Compound 041, N,N-diethyl-3-[4-[4-fluoro-2-(trifluoromethyl)benzoyl]piperazin-1-yl]benzenesulfonamide] | 10 to 50
11 | CCCN(C)S(=O)(=O)c1ccc(F)c(N2CCN(C(=O)c3ccc(F)cc3C(F)(F)F)CC2)c1 [Compound 042, 4-fluoro-3-[4-[4-fluoro-2-(trifluoromethyl)benzoyl]piperazin-1-yl]-N-methyl-N-propyl-benzenesulfonamide] | 1 to 5
12 | CCCN(C)S(=O)(=O)c1cc2c(c(N3CCN(C(=O)c4ccc(F)cc4C(F)(F)F)CC3)c1)OCC2 [Compound 043, 7-[4-[4-fluoro-2-(trifluoromethyl)benzoyl]piperazin-1-yl]-N-methyl-N-propyl-2,3-dihydrobenzofuran-5-sulfonamide] | 1 to 5
13 | CCN(CC)S(=O)(=O)c1cnc(Cl)c(N2CCN(C(=O)c3ccc(F)cc3C(F)(F)F)CC2)c1 [Compound 044, 6-chloro-N,N-diethyl-5-[4-[4-fluoro-2-(trifluoromethyl)benzoyl]piperazin-1-yl]pyridine-3-sulfonamide] | 10 to 50
14 | CCN(CC)S(=O)(=O)c1cnc(OC)c(N2CCN(C(=O)c3ccc(F)cc3C(F)(F)F)CC2)c1 [Compound 045, N,N-diethyl-5-[4-[4-fluoro-2-(trifluoromethyl)benzoyl]piperazin-1-yl]-6-methoxy-pyridine-3-sulfonamide] | 10 to 50
15 | CCCN(C)S(=O)(=O)c1ccc(OCCOC)c(N2CCN(C(=O)c3ccc(F)cc3C(F)(F)F)CC2)c1 [Compound 046, 3-[4-[4-fluoro-2-(trifluoromethyl)benzoyl]piperazin-1-yl]-4-(2-methoxyethoxy)-N-methyl-N-propyl-benzenesulfonamide] | 5 to 10
16 | CCCN(C)S(=O)(=O)c1ccc(OCc2ccccc2)c(N2CCN(C(=O)c3ccc(F)cc3C(F)(F)F)CC2)c1 [Compound 047, 4-benzyloxy-3-[4-[4-fluoro-2-(trifluoromethyl)benzoyl]piperazin-1-yl]-N-methyl-N-propyl-benzenesulfonamide] | 1 to 5
17 | CCCN(C)S(=O)(=O)c1ccc(O)c(N2CCN(C(=O)c3ccc(F)cc3C(F)(F)F)CC2)c1 [Compound 048, 3-[4-[4-fluoro-2-(trifluoromethyl)benzoyl]piperazin-1-yl]-4-hydroxy-N-methyl-N-propyl-benzenesulfonamide] | 5 to 10
18 | CCCN(C)S(=O)(=O)c1ccc(OCCO)c(N2CCN(C(=O)c3ccc(F)cc3C(F)(F)F)CC2)c1 [Compound 049, 3-[4-[4-fluoro-2-(trifluoromethyl)benzoyl]piperazin-1-yl]-4-(2-hydroxyethoxy)-N-methyl-N-propyl-benzenesulfonamide] | 10 to 50

Now from value to compound:

Row | EC50 [µM] | SMILES
19 | < 1 | COc1ccc(S(=O)(=O)N2CCC(=Cc3ccccc3)CC2)cc1N1CCN(C(=O)c2ccc(F)cc2Cl)CC1 [Compound 023, [4-[5-[(4-benzylidene-1-piperidyl)sulfonyl]-2-methoxy-phenyl]piperazin-1-yl]-(2-chloro-4-fluoro-phenyl)methanone]
20 | < 1 | COc1ccc(S(=O)(=O)N2CCC(CCc3ccccc3)CC2)cc1N1CCN(C(=O)c2ccc(F)cc2Cl)CC1 [Compound 024, (2-chloro-4-fluoro-phenyl)-[4-[2-methoxy-5-[[4-(2-phenylethyl)-1-piperidyl]sulfonyl]phenyl]piperazin-1-yl]methanone]
21 | < 1 | COc1ccc(S(=O)(=O)N2CCC(c3ccccc3)CC2)cc1N1CCN(C(=O)c2ccc(F)cc2Cl)CC1 [Compound 025, (2-chloro-4-fluoro-phenyl)-[4-[2-methoxy-5-[(4-phenyl-1-piperidyl)sulfonyl]phenyl]piperazin-1-yl]methanone]
22 | 1 to 5 | COc1ccc(S(=O)(=O)N2CCCC(c3ccccc3)C2)cc1N1CCN(C(=O)c2ccc(F)cc2Cl)CC1 (centres unmarked) [Compound 026, (2-chloro-4-fluoro-phenyl)-[4-[2-methoxy-5-[[3-phenyl-1-piperidyl]sulfonyl]phenyl]piperazin-1-yl]methanone]
23 | 1 to 5 | COc1ccc(S(=O)(=O)N2CCCC(Cc3ccccc3)C2)cc1N1CCN(C(=O)c2ccc(F)cc2Cl)CC1 (centres unmarked) [Compound 027, (2-chloro-4-fluoro-phenyl)-[4-[2-methoxy-5-[[3-benzyl-1-piperidyl]sulfonyl]phenyl]piperazin-1-yl]methanone]
24 | 1 to 5 | COc1ccc(S(=O)(=O)N2CCC(c3ccccc3)C2)cc1N1CCN(C(=O)c2ccc(F)cc2Cl)CC1 (centres unmarked) [Compound 028, (2-chloro-4-fluoro-phenyl)-[4-[2-methoxy-5-[3-phenylpyrrolidin-1-yl]sulfonyl-phenyl]piperazin-1-yl]methanone]
25 | 1 to 5 | CCCN(C)S(=O)(=O)c1ccc(OC)c(N2CCN(C(=O)c3ccc(F)cc3Cl)CC2)c1 [Compound 030, 3-[4-(2-chloro-4-fluoro-benzoyl)piperazin-1-yl]-4-methoxy-N-methyl-N-propyl-benzenesulfonamide]
26 | 1 to 5 | COc1ccc(S(=O)(=O)N2CCC(C(F)(F)F)CC2)cc1N1CCN(C(=O)c2ccc(F)cc2Cl)CC1 [Compound 031, (2-chloro-4-fluoro-phenyl)-[4-[2-methoxy-5-[[4-(trifluoromethyl)-1-piperidyl]sulfonyl]phenyl]piperazin-1-yl]methanone]
27 | 1 to 5 | COc1ccc(S(=O)(=O)NC(C)(C)C)cc1N1CCN(C(=O)c2ccc(F)cc2Cl)CC1 [Compound 032, N-tert-butyl-3-[4-(2-chloro-4-fluoro-benzoyl)piperazin-1-yl]-4-methoxy-benzenesulfonamide]
28 | 1 to 5 | COc1ccc(S(=O)(=O)NC2(C)CCCCC2)cc1N1CCN(C(=O)c2ccc(F)cc2Cl)CC1 [Compound 035, 3-[4-(2-chloro-4-fluoro-benzoyl)piperazin-1-yl]-4-methoxy-N-(1-methylcyclohexyl)benzenesulfonamide]
29 | < 1 | COc1ccc(S(=O)(=O)N2CCC(c3ccc(F)cc3)CC2)cc1N1CCN(C(=O)c2ccc(F)cc2Cl)CC1 [Compound 050, (2-chloro-4-fluoro-phenyl)-[4-[5-[[4-(4-fluorophenyl)-1-piperidyl]sulfonyl]-2-methoxy-phenyl]piperazin-1-yl]methanone]
